Here are results for two substances from patent US8252557B2, “Peptide-containing culture medium for culturing animal cell” (Chugai Seiyaku Kabushiki Kaisha, priority 2008, dated 2012).

In the assay the test system is humanized IgG (anti-glypican-3 antibody)-producing CHO cell line. As to the kind of experiment: Antibody-producing fed-batch culture, CHO cell line transfected with antibody gene. It is filed as cell-based. The settings on record: for concentration of lactic acid during culture: compared to fed-batch medium not containing the peptide; for antibody concentration after the 14-day culture: fed day 3-14 at 1.0 g/hr per L, control about 1.6 g/L; for antibody concentration higher than control: peptide-containing fed-batch medium vs fed-batch medium without peptide, day 14. The procedure:
(§1) The initial culture medium was placed in a jar-type cell culture system, and then the CHO cell line was added thereto into a concentration of 2×10^5 cells/mL and was cultured under the conditions of 37° C. and 10% CO2. During the culture period of 14 days, a pH level of not lower than 7.0 and a dissolved oxygen level of 40% were automatically maintained. The fed-batch medium was continuously fed from the 3rd day to the 14th day of the culture at a constant flow rate (1.0 g/hr for 1 L of the initial culture medium). The culture medium was sampled at the start of the culture and on the 3rd, 5th, 7th, 10th, 12th, and 14th days. The number of viable cells in each sampled culture solution was counted by trypan blue staining. The antibody concentration in the centrifuged supernatant of each culture solution was measured by affinity chromatography using protein A, and the concentration of lactic acid was measured by an immobilized enzyme process.
as §1, with “concentration” for “number”, “the produced” for “viable cells in each sampled culture solution was counted by trypan blue staining. The”, “antibody” for “antibody concentration”, “the” for “the centrifuged”, “sample” for “solution”, “A; the survival rate was measured by trypan blue staining;” for “A,”

Setting [1] is: fed-batch medium containing 50 mM of the peptide.

For the substance Cys-Tyr [dipeptide], the “concentration of lactic acid during culture” value is listed as “relatively low levels from the 5th day to the 10th day” and the “antibody concentration higher than control” value is listed as “about 25%”. Under setting [1], the “antibody concentration after the 14-day culture” value is “about 2.0 g/L”.

Turning to Cys-Tyr-Ser [tripeptide], the “concentration of lactic acid during culture” value is listed as “relatively low levels from the 3rd day to the 10th day” and the “antibody concentration higher than control” value is “about 30%”. Also, the “antibody concentration after the 14-day culture” value (fed-batch medium containing 25 mM of the tripeptide) is “about 2.1 g/L”. For the same substance, under setting [1], the “antibody concentration after the 14-day culture” value is reported as “about 2.1 g/L”.
